Test results as given in publication PMC4554797 (Bioorganic & medicinal chemistry, 2015).
Entries after “also recorded” stand apart in the source; their conditions may differ.

Assays:
MeWo = experiment: Cell viability assay; assay type: cell-based, human; settings: MeWo cells, 48 h, over the concentrations tested
ATX [1] = experiment: Serum analysis, mouse ENPP2 ELISA; assay type: in vivo; settings: at necropsy
MeWo cells = experiment: Animal model of melanoma; assay type: in vivo, athymic nude mice; settings: for Tumor growth vs. DMF control: 30 mg/kg i.p. three times a week
[2] = tested on: multiple cancer cell lines; experiment: Cell viability assay; assay type: cell-based, human; settings: 48 h; for Effect on cell viability (in words): HT-29, PC-3, MDA-MB-231, MeWo, SB-2, OVCAR-3, SKOV-3
ATX [3] = biological target: T1, ATX (Homo sapiens, UniProt Q13822); experiment: ATX Inhibitor Screening Kit, FS-3 hydrolysis; assay type: biochemical; settings: for ATX inhibition (in words): dose-response mode, highest test concentration 10 μM
ATX [4] = biological target: T1, ATX; experiment: Dilution/dialysis washout experiment, ATX activity by FS-3; assay type: biochemical; settings: pre-incubated two minutes, over 1000-fold dilution over approximately one hour
Melanoma tumors = experiment: Tumor specimen analysis; assay type: in vivo, athymic nude mice
VEGF = experiment: Serum analysis, circulating VEGF; assay type: in vivo, mouse; settings: data not shown
MDA-MB-231 = experiment: Wound healing assay; assay type: cell-based, human; settings: MDA-MB-231, 5 μM
KC/CXCL1 = experiment: Serum analysis, mouse Bio-Plex 23-Plex panel; assay type: in vivo; settings: at necropsy; p<0.05 at 20 mg/kg, p<0.001 at 50-40 mg/kg vs. control
OVCAR-3 = experiment: Wound healing assay; assay type: cell-based, human; settings: OVCAR-3, 5 μM
[5] = tested on: MDA-MB-231, OVCAR-3, SKOV-3 and MeWo cells; experiment: Wound healing assay, all cell lines examined; assay type: cell-based, human

CC(=O)O[C@H]1C(=O)[C@@]2(C)[C@H]([C@H](OC(=O)c3ccccc3)[C@]3(O)C[C@H](OC(=O)[C@H](O)[C@@H](NC(=O)c4ccccc4)c4ccccc4)C(C)=C1C3(C)C)[C@]1(OC(C)=O)CO[C@@H]1C[C@@H]2O [paclitaxel]
Cell viability reached (MeWo): ≥ 50%

O=C1S/C(=C\c2ccc(OCc3cccc(B(O)O)c3)cc2)C(=O)N1Cc1ccc(F)cc1 [HA-130, reference compound]
Circulating ATX in serum vs. control (ATX [1]; 30 mg/kg): no significant difference | Tumor growth vs. DMF control (MeWo cells): neither of these ATX inhibitors reached statistical significance; also recorded: did not impact tumor progression

CN(C)/N=N/c1[nH]cnc1C(N)=O [dacarbazine]
Cell viability reached (MeWo): ≥ 50%

CC[C@]1(O)C[C@H]2CN(CCc3c([nH]c4ccccc34)[C@@](C(=O)OC)(c3cc4c(cc3OC)N(C=O)[C@H]3[C@@](O)(C(=O)OC)[C@H](OC(C)=O)[C@]5(CC)C=CCN6CC[C@]43[C@@H]65)C2)C1 [vincristine]
Cell viability reached (MeWo): ≥ 50%

O=C(CCN1CCN(C(=O)OCc2cc(Cl)cc(Cl)c2)CC1)c1ccc2[nH]c(=O)oc2c1 [PF-8380, reference compound]
Circulating ATX in serum vs. control (ATX [1]; 30 mg/kg): no significant difference | Tumor growth vs. DMF control (MeWo cells): neither of these ATX inhibitors reached statistical significance; also recorded: did not impact tumor progression

C=C(CCCCCCCCCCCCCCCC)S(=O)(=O)c1ccccc1 [PVS-16]
Effect on cell viability (in words) [2]: little effect on cell viability | Effect on cell viability (in words) ([2]; listed as PVS-16 (21)): most cell types were unaffected | ATX inhibition (in words) (ATX [3]): did not inhibit ATX | ATX inhibition (in words) (ATX [3]; listed as PVS-16 (21)): no binding effect | ATX inhibition after washout (ATX [4]): no evidence of inhibiting ATX activity

C=C(CCCCCCCCCCCCCCCC)S(=O)(=O)CCC[N+](C)(C)C.[Cl-] [CVS-16, N,N,N-trimethyl-3-(octadec-1-en-2-ylsulfonyl)propan-1-aminium chloride]
Specimens with mixed areas of viable and necrotic endothelial cells (Melanoma tumors; 20 mg/kg): 50% | Specimens with only viable endothelial cells (Melanoma tumors; 20 mg/kg): 50% | Percent of necrotic tissue within the tumor (Melanoma tumors; 40-50 mg/kg, p<0.01 vs. control, p<0.05 vs. 20 mg/kg): significantly more necrosis than control | Ki-67 staining of tumor sections (Melanoma tumors; data not shown): no significant differences | Circulating VEGF vs. controls (VEGF): did not observe any change | Concentration range of significant activity on cell viability [2]: 0.5 to 5 µM | Effect on cell viability (in words) [2]: reduced cell viability to some extent | Circulating ATX in serum vs. control (ATX [1]; CVS-16 treated animals, p<0.05): significant reduction | Reduction of wound healing (MDA-MB-231): over 75% | Tumor volume vs. control (MeWo cells; 20 mg/kg i.p. three times a week): no significant difference | Time over which inhibition of tumor volume was sustained (MeWo cells; 40-50 mg/kg, days after the injection of tumor cells): approximately 53 days | Tumor sizes vs. control (MeWo cells; 50-40 mg/kg i.p. three times a week, day 57 (p<0.05) and day 65 (p<0.001)): achieved statistical significance | Melanoma progression in in vivo tumor model (MeWo cells; dose not given at this place): significantly inhibited melanoma progression | Serum KC/CXCL-1 (KC/CXCL1): significant reduction | ATX inhibition after short pre-incubation (ATX [3]; pre-incubating ATX with compound for 2 minutes): complete inhibition | Reduction of wound healing (OVCAR-3): over 75% | Deaths (50 mg/kg group (n=5)): one mouse | Clinical condition of mice (50 mg/kg i.p., 46th day of the study): severely dehydrated | ATX inhibition after washout (ATX [4]): did not decrease the ATX inhibition | Wound healing (in words) ([5]; 5 μM, 24 h, vs. untreated): inhibited wound healing | Wound closure in combination with LPA ([5]; CVS-16 5 μM combined with LPA (18:1, 1 μM), in most cases): LPA was not able to overcome the inhibition
